Assay [1] has as its system platelet aggregation (collagen). Briefly: Inhibition of collagen-induced platelet aggregation, guinea pig ex vivo (turbidimetric, PRP). Particulars: p.o. It is filed as in vivo. How it is done: (§1) These compounds were tested for inhibition of platelet aggregation alone and in combination with certain anti-inflammatory agents, in the guinea pig ex vivo by the following method: • Ten male guinea pigs weighing 250-300 g were orally dosed 1% methyl cellulose (5 ml/kg) in which the compound under test was suspended. Ten control animals were given methyl cellulose alone. […] Platelet-rich- plasma (PRP) was prepared from each blood sample by centrifigation at 450 g to 5 min. The platelet concentration in each sample or PRP was adjusted with auto- logous platelet-poor-plasma to give a count of […] PRP. Aggregation was measured turbido- metrically (G.V.R. Born, 1962, Nature, 194, 927-929) at 39° using a Bryston aggregometer coupled to a penrecorder. The concentration of callogen producing approximately 50% maximal aggregation and the concentration of ADP producing first-phase aggregation were compared in PRP samples from control and drug treated animals.
(§2) In the tables the dose ratio represents the ratio of the concentration of aggregating agent to cause aggregation in PRP from drug-treated animals to the concentration of aggregating agent to cause aggregation in PRP from control animals.

In assay [2] the test system is platelet aggregation (ADP). The assay can be described thus: Inhibition of ADP-induced platelet aggregation, guinea pig ex vivo (turbidimetric, PRP). It is filed as in vivo. The conditions noted are these: p.o. How it is done:
as §1, §2

Where [3] appears, read: Table 6, 2 h, mmol(mg)/kg: Aspirin 0.15 (27), Compound D 0.15 (59), Compound D Aspirinate Salt 0.15 (88).
[4] abbreviates: Table 6, ADP 0.5µM, 2 h, mmol(mg)/kg: Aspirin 0.15 (27), Compound D 0.15 (59), Compound D Aspirinate Salt 0.15 (88).
[5] abbreviates: Table 1, PRP 2 h after dosing, mmol(mg)/kg: Aspirin 0.15 (27), Compound A 0.08 (20), combination 0.15 (27)+0.08 (20).
[6] abbreviates: Table 2, 2 h, mmol(mg)/kg: Aspirin 0.15 (27), Compound B 0.08 (22), combination 0.15 (27)+0.08 (22).
[7] abbreviates: Table 4, 2 h, mmol(mg)/kg: Aspirin 0.15 (27), Compound C 0.6 (217), combination 0.15 (27)+0.6 (217).
Where [8] appears, read: Table 5, 2 h, mmol(mg)/kg: Aspirin 0.15 (27), Compound D 0.08 (31), combination 0.08 (31)+0.15 (27).
[9] abbreviates: Table 1, ADP 0.5μM, 2 h, mmol(mg)/kg: Aspirin 0.15 (27), Compound A 0.08 (20), combination 0.15 (27)+0.08 (20).
[10] abbreviates: Table 1, 2 h, mmol(mg)/kg: Aspirin 0.15 (27), Compound A 0.08 (20), combination 0.15 (27)+0.08 (20).
Where [11] appears, read: Table 2, ADP 0.5μM, 2 h, mmol(mg)/kg: Aspirin 0.15 (27), Compound B 0.08 (22), combination 0.15 (27)+0.08 (22).
[12] abbreviates: Table 4, ADP 0.5μM, 2 h, mmol(mg)/kg: Aspirin 0.15 (27), Compound C 0.6 (217), combination 0.15 (27)+0.6 (217).
Where [13] appears, read: Table 5, ADP 0.5µM, 2 h, mmol(mg)/kg: Aspirin 0.15 (27), Compound D 0.08 (31), combination 0.08 (31)+0.15 (27).
Setting [14] is: Table 3, 2 h, mmol(mg)/kg: Indomethacin 0.003 (1), Compound B 0.08 (22), combination 0.003 (1)+0.08 (22).
Setting [15] is: Table 3, ADP 0.5µM, 2 h, mmol(mg)/kg: Indomethacin 0.003 (1), Compound B 0.08 (22), combination 0.003 (1)+0.08 (22).

Structures can show the parent of a compound that is named as a salt. Marks after values point to notes of the source that are not given here. A value given as a limit tells only on which side of the number the result lay.

Regarding `COc1cc2sn(CCCCN3CC4CCC(CC4)C3)c(=O)c2cc1OC` [Compound D Aspirinate Salt, Aspirin salt of 2-(4-(3-azabicyclo[3.2.2.]non-3-yl)butyl)-5,6-dimethoxy-1,2-benzisothiazol-3-one], the “Dose-ratio vs. Coll.” value in assay [1] (setting [3]) is reported as >57*. Also, in assay [2] (setting [4]), the “% Inhibition of ADP (0.5µM)” value is recorded as 91* %. Besides, the “Dose-ratio vs. ADP” value in assay [2] (setting [3]) is on record as 4.6*.
For the compound `CC(=O)Oc1ccccc1C(=O)O` [Aspirin, aspirin, reference compound], the “Dose-ratio vs. Coll.” value in assay [1] (setting [5]), in assay [1] (setting [6]), in assay [1] (setting [7]), in assay [1] (setting [8]) and in assay [1] (setting [3]) was 2.2* in each case. For the same compound, the “% Inhibition of ADP (0.5µM)” value in assay [2] (setting [9]) is reported as 16%; in assay [2] (setting [11]) it was 0%; in assay [2] (setting [12]) it was 0%; in assay [2] (setting [13]) it was 0%; in assay [2] (setting [4]), 0%. Moreover, in assay [2] (setting [10]), the “% Inhibition of ADP 1μM” value stood at 0%. Moreover, the “Dose-ratio vs. ADP” value in assay [2] (setting [5]), in assay [2] (setting [6]), in assay [2] (setting [7]), in assay [2] (setting [8]) and in assay [2] (setting [3]) was 1.3 in each case.
For `COc1ccc2c(c1)c(CC(=O)O)c(C)n2C(=O)c1ccc(Cl)cc1` [Indo-methacin, Indomethacin, reference compound], in assay [1] (setting [14]), the “Dose-ratio vs. Coll.” value is 1.7*. Besides, the “% Inhibition of ADP (0.5µM)” value in assay [2] (setting [15]) came to 0%. Besides, in assay [2] (setting [14]), the “Dose-ratio vs. ADP” value came to 1.1.
Take `O=c1c2ccccc2sn1CCCN1CCCCC1` [Compound B, 2-[3-(1-piperidyl)propyl]-1,2-benzisothiazol-3-one]: the “Dose-ratio vs. Coll.” value in assay [1] (setting [6]) and in assay [1] (setting [14]) was 9.0* each time. The “% Inhibition of ADP (0.5µM)” value in assay [2] (setting [11]) and in assay [2] (setting [15]) was 57* % each time. The “Dose-ratio vs. ADP” value in assay [2] (setting [6]) and in assay [2] (setting [14]) was 1.7* in each case.
For the compound `O=c1c2ccccc2sn1CCN1CCCCC1` [Compound A, 2-[2-(1-piperidyl)ethyl] 1,2-benzisothiazol-3-one], the “Dose-ratio vs. Coll.” value in assay [1] (setting [5]) is 8.3*. Besides, the “% Inhibition of ADP (0.5µM)” value in assay [2] (setting [9]) is recorded as 26%. The “% Inhibition of ADP 1μM” value in assay [2] (setting [10]) is 0%. Also, the “Dose-ratio vs. ADP” value in assay [2] (setting [5]) is listed as 1.4*.
`COc1cc2sn(CCCCN3CC4CCC(CC4)C3)c(=O)c2cc1OC` [Compound D, 2-[4-(3-azabicyclo[3.2.2]non-3-yl)butyl]-5,6-dimethoxy-1,2-benzisothiazol-3-one]: the “Dose-ratio vs. Coll.” value is listed as 5.4* in assay [1] (setting [8]) and >15.4* in assay [1] (setting [3]). The “% Inhibition of ADP (0.5µM)” value in assay [2] (setting [13]) is 86* %; in assay [2] (setting [4]), 61* %. Besides, the entries for the “Dose-ratio vs. ADP” value in assay [2] (setting [8]) and in assay [2] (setting [3]) were 2.6* and 3.2*, respectively.
For `COc1cc2sn(CCN3CC4CCC(CC4)C3)c(=O)c2cc1OC` [Compound C, 2-[2-(3-azabicyclo[3.2.2]non-3-yl)ethyl)-5,6-dimethoxy-1,2-benzisothiazol-3-one], the “Dose-ratio vs. Coll.” value in assay [1] (setting [7]) is on record as >13.9*. Also, the “% Inhibition of ADP (0.5µM)” value in assay [2] (setting [12]) is recorded as 92* %. Moreover, in assay [2] (setting [7]), the “Dose-ratio vs. ADP” value was 3.3*.

(Values after patent EP0001503A1, “Antithrombotic compositions containing benzisothiazolones” (BEECHAM GROUP PLC, priority 1977, dated 1979).)
